Assay results from patent US10512651B2, “Inhibition of MK2 in the treatment of cancer” (STC.UNM, priority 2014, dated 2019).

Legend:
[1] = test system: Caco-2 colon cancer cells; assay: Caco-2 scratch wound assay (proliferation and migration); assay type: cell-based; details: Caco-2 cells incubated with inhibitor, FIG. 9
Description: FIG. 9 is a graph showing that MK2 inhibition decreases colon cancer carcinoma cell proliferation. Incubating Caco-2 colon cancer cells with the MK2 inhibitor (MK2a) decreased proliferation and migration in a scratch wound assay.

[2] = test system: neoplasms in AOM/DSS exposed mice; assay: AOM/DSS mouse model of colon cancer, neoplasm number after MK2 inhibitor treatment; assay type: in vivo; details: treated three times a week for three weeks; FIG. 10
Description: FIG. 10 is a graph showing that AOM/DSS exposed mice treated with MK2 inhibitors regresses neoplasms.
Mice: C57Bl/6 mice from Harlan Laboratories and the MK2^−/−tm1Mgl (8) mouse strain were bred under pathogen free conditions. Animal procedures were approved by the UNM IACUC. Azoxymethane (AOM), (Sigma Aldrich, St. Louis, Mo.) was injected […] into 6-8 week old female mice at 12.5 mg/kg. Dextran Sodium Sulfate (DSS), (MP Biomedicals, MW 36,000-50,000) was added to drinking water at 2.5% at days 5 and 26 and at 2.0% at day 47, 2.0% for 5 days sacrificed at day 80. Control mice received PBS IP and no DSS in water. Mouse Colon Supernatants: 8 mg (±0.5 mg) of cleaned colon tissues were incubated in complete RPMI with antibiotics for 12 hours. Supernatants were analyzed for cytokines by Luminex bead array (Millipore, Billerica, Mass.) according to manufacturer's instructions.

O=C(CCCc1ccc(-c2ccccc2F)cc1)Nc1ccc(O)cc1 [MK2a inhibitor]
migration in a scratch wound assay [1]: decreased | colon cancer carcinoma cell proliferation ([1]; scratch wound assay): decreased | neoplasms (number) in AOM/DSS exposed mice [2]: significantly less neoplasms
